Test results: patent US4965280A, “Antifungal carbinols” (E. I. Du Pont de Nemours and Company, priority 1989, dated 1990)
≈ marks a conversion by molar mass, not a printed value. Where two headings read alike, the source gives them in different places.

Experiments:
[1] = tested on: Candida albicans ATCC 11651; assay: In vivo systemic Candida infection in mice, primary assay; design: species or system Candida albicans; CF-1 female mice; conditions: Candida albicans, 150 mg/kg per day, read-out: % Survival
In short: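 CF-1 female mice (20 g, 10 per group) were infected IV with 0.2 ml of 1×10^7/ml C. albicans ATCC 11651, then given test compound subcutaneously at 50 or 150 mg/kg/day at 1 and 6 h post-infection and once daily for three more days. Survival was followed for 21 days against infected untreated mice; ≥70% protection at 14 days was scored active.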

Botrytis cinerea = assay: Example C bean grey mold; format: in vivo; conditions: Botrytis cinerea, 24 h, 100 PPM; read-out: disease control rating, Ex. C
In short: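 Broad bean seedlings; foliar spray to run-off. Cmpd 100 or 20 ppm in water + 250 ppm TREM 014, acetone 6% v/v final.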

Sclerotium rolfsii = assay: Example M southern blight; format: in vivo; conditions: Agroathelia rolfsii, 336 h; 5 kg/ha; read-out: disease control rating, Ex. M
Protocol: […] Seeds and soil were then inoculated with a mixture of sand, cereal and mycelium of the fungus Sclerotium rolfsii, causal agent of sourthern blight, and incubated in a growth chamber at 30° C. for 14 days. Disease ratings were then made.

WILD BUCKWHEAT = assay: Test E; format: in vivo, Polygonum convolvulus
[2] = tested on: Candida albicans ATCC 11651; assay: In vitro antifungal MIC, microtiter broth dilution; conditions: Candida albicans, ATCC11651, 24 h, read-out: MIC values, C. albicans, 30°, 24 hours
WATERCHESTNUT = assay: Test C rice paddy; format: in vivo, Eleocharis spp.; conditions: Eleocharis, 504 h, 21 days, read-out: plant response; for pest or weed control at 64 g/ha: 0064 G/HA; for pest or weed control at 125 g/ha: 0125 G/HA; for pest or weed control at 250 g/ha: 0250 G/HA; for pest or weed control at 500 g/ha: 0500 G/HA
Source text: (§1) Sixteen cm diameter Airlite plastic pots were partially filled with Tama slit loam soil and the soil saturated with water. Japonica and Indica rice seedlings a the 2.0 to 2.5 leaf stage were transplanted into 1/3 of the pots. Into another third of the pots were transplanted seedling or sprouted tubers of water plantain (Alisma trivale), Scripus (Scirpus paludosus), Cyperus (Cyperus esculentus), and arrowhead (Sagittaria spp.). The remaining pots were planted with barnyardgrass (Echinochloa crusgalli) seeds and sprouted tubes of water chestnut (Eleocharis spp.). These weeds all represent major rice weeds or genera of weeds important in rice. Three to four days after planting, the water level was raised to 3 cm (about 1200 ml/pot) and maintained a this level throughout the test. Chemical treatments were applied directly to the paddy water, within 24 hours of raising the water, after being formulated in a nonphytotoxic solvent. The pots were maintained in the greenhouse.

SCIRPUS = assay: Test C rice paddy; format: in vivo, Scirpus paludosus; conditions: Bolboschoenus maritimus, 504 h, 21 days, read-out: plant response; for pest or weed control at 64 g/ha: 0064 G/HA; for pest or weed control at 125 g/ha: 0125 G/HA; for pest or weed control at 250 g/ha: 0250 G/HA; for pest or weed control at 500 g/ha: 0500 G/HA
Source text: as §1

YELLOW NUTSEDGE = assay: Test C rice paddy; format: in vivo, Cyperus esculentus; conditions: 21 days
Source text: as §1

RICE JAP EFF = assay: Test C rice paddy; format: in vivo, Japonica rice; conditions: Oryza sativa, 504 h, 21 days, read-out: plant response; for pest or weed control at 64 g/ha: 0064 G/HA; for pest or weed control at 125 g/ha: 0125 G/HA; for pest or weed control at 250 g/ha: 0250 G/HA; for pest or weed control at 500 g/ha: 0500 G/HA
Source text: as §1

RICE INDICA EFF = assay: Test C rice paddy; format: in vivo; conditions: Oryza sativa, 504 h, 21 days, read-out: plant response; for pest or weed control at 64 g/ha: 0064 G/HA; for pest or weed control at 125 g/ha: 0125 G/HA; for pest or weed control at 250 g/ha: 0250 G/HA; for pest or weed control at 500 g/ha: 0500 G/HA
Source text: as §1

| SMILES | responders at 150 mg/kg ([1]; ATCC11651, 168 h, day 7) | responders at 150 mg/kg ([1]; ATCC11651, 336 h, day 14) | pest or weed control at 100 ppm (Botrytis cinerea) | pest or weed control at 5000 g/ha (Sclerotium rolfsii) | plant response (WILD BUCKWHEAT; POSTEMERGENCE 0064 GM/HA) | plant response (WILD BUCKWHEAT; POSTEMERGENCE 0125 GM/HA) | plant response (WILD BUCKWHEAT; POSTEMERGENCE 0250 GM/HA) | plant response (WILD BUCKWHEAT; POSTEMERGENCE 0500 GM/HA) | MIC [2] | responders at 150 mg/kg ([1]; ATCC11651, 504 h, day 21) | pest or weed control at 64 g/ha (WATERCHESTNUT) | pest or weed control at 125 g/ha (WATERCHESTNUT) | pest or weed control at 250 g/ha (WATERCHESTNUT) | pest or weed control at 500 g/ha (WATERCHESTNUT) | pest or weed control at 1000 g/ha (WATERCHESTNUT) | pest or weed control at 64 g/ha (SCIRPUS) | pest or weed control at 125 g/ha (SCIRPUS) | pest or weed control at 250 g/ha (SCIRPUS) | pest or weed control at 500 g/ha (SCIRPUS) | pest or weed control at 1000 g/ha (SCIRPUS) | further results |
| --- | --- | --- | --- | --- | --- | --- | --- | --- | --- | --- | --- | --- | --- | --- | --- | --- | --- | --- | --- | --- | --- |
| C=C(c1ccc(F)cc1)C(O)(Cn1cncn1)c1ccc(F)cc1F (centres unmarked) [Example 4, 2-(2,4-Difluorophenyl)-3-(4-fluorophenyl)-1-(1H-1,2,4-triazol-1-yl)-3-buten-2-ol] | 100% | 50% | 88% | 0% | 0% | 0% | 40% | 70% | 0.03 mg/L (≈ 0.0869 µM) |  |  |  |  |  |  |  |  |  |  |  | plant response (WILD BUCKWHEAT; PREEMERGENCE 0500 GM/HA): 40% |
| C=C(c1ccccc1)C(O)(Cn1cncn1)c1ccc(Cl)cc1 (centres unmarked) [Example 51, 2-(4-Chlorophenyl)-3-phenyl-1-(1H-1,2,4-triazol-1-yl)-3-buten-2-ol] | 100% | 100% | 96% |  | 0% | 0% | 0% | 0% | 0.03 mg/L (≈ 0.0921 µM) | 80% |  |  |  |  |  |  |  |  |  |  | plant response (WILD BUCKWHEAT; PREEMERGENCE 0500 GM/HA): 0% |
| C=C(c1ccccc1)C(O)(Cn1cncn1)c1ccc(F)cc1F (centres unmarked) [Example 52, 2-(2,4-Difluorophenyl)-3-phenyl-1-(1H-1,2,4-triazol-1-yl)-3-buten-2-ol] | 100% | 100% | 95% | 0% | 0% | 0% | 0% | 30% | 0.03 mg/L (≈ 0.0916 µM) | 90% |  |  |  |  |  |  |  |  |  |  | plant response (WILD BUCKWHEAT; PREEMERGENCE 0250 GM/HA): 20% |
| C=C(c1ccc(Cl)cc1Cl)C(O)(Cn1cncn1)c1ccccc1F (centres unmarked) [Example 107] |  |  |  |  |  |  |  |  |  |  | 0% | 0% | 40% | 60% | 30% | 0% | 0% | 60% | 80% | 80% | plant response (YELLOW NUTSEDGE; 0064 G/HA): 0; plant response (YELLOW NUTSEDGE; 0125 G/HA): 0; plant response (YELLOW NUTSEDGE; 0250 G/HA): 50; plant response (YELLOW NUTSEDGE; 0500 G/HA): 30; plant response (YELLOW NUTSEDGE; 1000 G/HA): 95; pest or weed control at 64 g/ha (RICE JAP EFF): 0%; pest or weed control at 125 g/ha (RICE JAP EFF): 0%; pest or weed control at 250 g/ha (RICE JAP EFF): 30%; pest or weed control at 500 g/ha (RICE JAP EFF): 40%; pest or weed control at 1000 g/ha (RICE JAP EFF): 50%; pest or weed control at 64 g/ha (RICE INDICA EFF): 0%; pest or weed control at 125 g/ha (RICE INDICA EFF): 0%; pest or weed control at 250 g/ha (RICE INDICA EFF): 30%; pest or weed control at 500 g/ha (RICE INDICA EFF): 40%; pest or weed control at 1000 g/ha (RICE INDICA EFF): 50%; plant response (WILD BUCKWHEAT; PREEMERGENCE 0250 GM/HA): 0% |
| C=C(c1ccc(F)cc1)C(O)(Cn1cncn1)c1ccccc1F (centres unmarked) [Example 644] | 80% | 70% | 94% |  | 0% | 0% | 0% | 0% | 0.03 mg/L (≈ 0.0916 µM) | 50% |  |  |  |  |  |  |  |  |  |  | plant response (WILD BUCKWHEAT; PREEMERGENCE 0500 GM/HA): 30% |
| C=C(c1ccc(Cl)cc1)C(O)(Cn1cncn1)c1ccccc1F (centres unmarked) [Example 669] | 100% | 100% | 90% | 0% |  |  |  |  | 0.03 mg/L (≈ 0.0873 µM) | 100% | 0% | 0% | 0% | 0% | 0% | 0% | 0% | 0% | 0% | 30% | plant response (YELLOW NUTSEDGE; 0064 G/HA): 0; plant response (YELLOW NUTSEDGE; 0125 G/HA): 0; plant response (YELLOW NUTSEDGE; 0250 G/HA): 0; plant response (YELLOW NUTSEDGE; 0500 G/HA): 60; plant response (YELLOW NUTSEDGE; 1000 G/HA): 80; pest or weed control at 64 g/ha (RICE JAP EFF): 0%; pest or weed control at 125 g/ha (RICE JAP EFF): 0%; pest or weed control at 250 g/ha (RICE JAP EFF): 0%; pest or weed control at 500 g/ha (RICE JAP EFF): 0%; pest or weed control at 1000 g/ha (RICE JAP EFF): 0%; pest or weed control at 64 g/ha (RICE INDICA EFF): 0%; pest or weed control at 125 g/ha (RICE INDICA EFF): 0%; pest or weed control at 250 g/ha (RICE INDICA EFF): 0%; pest or weed control at 500 g/ha (RICE INDICA EFF): 0%; pest or weed control at 1000 g/ha (RICE INDICA EFF): 0% |
| C=C(c1ccc(F)cc1)C(O)(Cn1ncnc1S)c1ccc(F)cc1F (centres unmarked) [Example 1304] |  |  | 97% | 0% |  |  |  |  |  |  | 0% | 0% | 0% | 0% | 50% | 0% | 0% | 65% | 70% | 80% | plant response (YELLOW NUTSEDGE; 0064 G/HA): 0; plant response (YELLOW NUTSEDGE; 0125 G/HA): 0; plant response (YELLOW NUTSEDGE; 0250 G/HA): 0; plant response (YELLOW NUTSEDGE; 0500 G/HA): 0; plant response (YELLOW NUTSEDGE; 1000 G/HA): 0; pest or weed control at 64 g/ha (RICE JAP EFF): 0%; pest or weed control at 125 g/ha (RICE JAP EFF): 0%; pest or weed control at 250 g/ha (RICE JAP EFF): 0%; pest or weed control at 500 g/ha (RICE JAP EFF): 0%; pest or weed control at 1000 g/ha (RICE JAP EFF): 40%; pest or weed control at 64 g/ha (RICE INDICA EFF): 0%; pest or weed control at 125 g/ha (RICE INDICA EFF): 0%; pest or weed control at 250 g/ha (RICE INDICA EFF): 0%; pest or weed control at 500 g/ha (RICE INDICA EFF): 0%; pest or weed control at 1000 g/ha (RICE INDICA EFF): 40% |
| C=C(c1ccc(F)cc1)C(O)(Cn1ncnc1I)c1ccc(F)cc1F (centres unmarked) [Example 1381] |  |  | 97% | 0% |  |  |  |  |  |  | 0% | 0% | 0% | 0% | 0% | 0% | 0% | 0% | 0% | 30% | plant response (YELLOW NUTSEDGE; 0064 G/HA): 0; plant response (YELLOW NUTSEDGE; 0125 G/HA): 0; plant response (YELLOW NUTSEDGE; 0250 G/HA): 0; plant response (YELLOW NUTSEDGE; 0500 G/HA): 40; plant response (YELLOW NUTSEDGE; 1000 G/HA): 50; pest or weed control at 64 g/ha (RICE JAP EFF): 0%; pest or weed control at 125 g/ha (RICE JAP EFF): 0%; pest or weed control at 250 g/ha (RICE JAP EFF): 20%; pest or weed control at 500 g/ha (RICE JAP EFF): 40%; pest or weed control at 1000 g/ha (RICE JAP EFF): 60%; pest or weed control at 64 g/ha (RICE INDICA EFF): 0%; pest or weed control at 125 g/ha (RICE INDICA EFF): 0%; pest or weed control at 250 g/ha (RICE INDICA EFF): 20%; pest or weed control at 500 g/ha (RICE INDICA EFF): 40%; pest or weed control at 1000 g/ha (RICE INDICA EFF): 60% |
